The experiment has as its system L1210 leukemia ip in BDF1 mice, survival T/C. The experiment is described as follows: NCI In Vivo Anticancer Drug Screen. Data for tumor model L1210 Leukemia (intraperitoneal) in B6D2F1 (BDF1) mice. The settings on record: endpoint: mean survival time, higher = longer survival. Put shortly: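 Ratio derived from survival: compound-dosed mice over vehicle-dosed mice, all bearing a transplantable tumor.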

[1] abbreviates: dose: 100.0 mg/kg/injection, schedule: Q01DX001 (ip), vehicle: carboxymethylcellulose (CMC).
[2] abbreviates: dose: 200.0 mg/kg/injection, schedule: Q01DX001 (ip), vehicle: carboxymethylcellulose (CMC).
[3] abbreviates: dose: 400.0 mg/kg/injection, schedule: Q01DX001 (ip), vehicle: carboxymethylcellulose (CMC).
The mark [4] stands for this setting: dose: 50.0 mg/kg/injection, schedule: Q01DX001 (ip), vehicle: carboxymethylcellulose (CMC).
[5] abbreviates: dose: 100.0 mg/kg/injection, schedule: Q04DX003 (ip), vehicle: saline.

The structures appear in SMILES notation. Several values for one entry are separate records, joined by “and”; a condition that tells them apart may be missing. Equal entries are not always repeated. Toxic doses and inconclusive results are not listed. Numbered stars: 1 amine (or outer) side, 2 acyl side, 3 side chain; on linkers, the order of the positions; unused ones are H or OH. Bridge positions count the residues as written; N and C are the ends. Square brackets hold non-standard residues; d marks the D form. Peptide text beside a SMILES is read from it. I, II: the chains in the order shown. Actinocin(1to9) = Cc1c2oc3c(C)ccc(C(=O)[*:2])c3nc-2c(C(=O)[*:1])c(N)c1=O; X2 = CC(=O)OC1CC(C)N([*:1])C1C(=O)[*:2]; X1 = CC1CC(=O)C(C(=O)[*:2])N1[*:1]; NMeV = CN[CH](C(=O)O)C(C)C; NMeA = CN[CH](C)C(=O)O; Sar = CNCC(=O)O

Turning to `CCOC(=S)NS(=O)(=O)c1ccccc1`, the T/C was 98 % of control (dose: 100.0 mg/kg/injection, schedule: Q01DX001 (ip), vehicle: acetone); 110 % of control (dose: 200.0 mg/kg/injection, schedule: Q01DX001 (ip), vehicle: acetone); 98 % of control (dose: 400.0 mg/kg/injection, schedule: Q01DX001 (ip), vehicle: acetone).

Regarding `COC(=O)c1ccc2c(c1)NP(=O)(c1ccccc1)S2` (stereo unspecified), the T/C (dose: 75.0 mg/kg/injection, schedule: Q01DX001 (ip), vehicle: saline) is 98 % of control; the T/C (dose: 150.0 mg/kg/injection, schedule: Q01DX001 (ip), vehicle: saline) was 104 % of control; the T/C (dose: 300.0 mg/kg/injection, schedule: Q01DX001 (ip), vehicle: saline) is 98 % of control.

For `CC(=O)OC1CC(C)N2C(=O)C(C(C)C)NC(=O)C(NC(=O)c3ccc(C)c4oc5c(C)c(=O)c(N)c(C(=O)NC6C(=O)NC(C(C)C)C(=O)N7C(C)CC(=O)C7C(=O)N(C)CC(=O)N(C)C(C)C(=O)OC6C)c-5nc34)C(C)OC(=O)C(C(C)C)N(C)C(=O)CN(C)C(=O)C12` (stereo unspecified) (I: TV[X1][Sar][NMeA] / II: TV[X2][Sar][NMeV]; ester I:1-I:C, II:1-II:C; linker I:N-II:N via Actinocin(1to9); configuration not given here), the T/C by setting is: (dose: 0.1 mg/kg/injection, schedule: Q01DX009 (ip), vehicle: saline + alcohol) 101 % of control; (dose: 0.2 mg/kg/injection, schedule: Q01DX009 (ip), vehicle: saline + alcohol) 105 % of control; (dose: 0.3 mg/kg/injection, schedule: Q04DX003 (ip), vehicle: saline + alcohol) 97 % of control; (dose: 0.4 mg/kg/injection, schedule: Q01DX009 (ip), vehicle: saline + alcohol) 110 % of control; (dose: 0.6 mg/kg/injection, schedule: Q04DX003 (ip), vehicle: saline + alcohol) 108 % of control; (dose: 0.8 mg/kg/injection, schedule: Q01DX001 (ip), vehicle: saline + alcohol) 97 % of control. Further, the T/C is 116 % of control (dose: 0.8 mg/kg/injection, schedule: Q01DX009 (ip), vehicle: saline + alcohol); 110 % of control (dose: 1.2 mg/kg/injection, schedule: Q04DX003 (ip), vehicle: saline + alcohol); 102 % of control (dose: 1.6 mg/kg/injection, schedule: Q01DX001 (ip), vehicle: saline + alcohol); 122 % of control (dose: 1.6 mg/kg/injection, schedule: Q01DX009 (ip), vehicle: saline + alcohol); 112 % of control (dose: 2.4 mg/kg/injection, schedule: Q04DX003 (ip), vehicle: saline + alcohol); 106 % of control (dose: 3.2 mg/kg/injection, schedule: Q01DX001 (ip), vehicle: saline + alcohol). For the same compound, the T/C was 121 % of control (dose: 4.8 mg/kg/injection, schedule: Q04DX003 (ip), vehicle: saline + alcohol) and 122 % of control (dose: 6.4 mg/kg/injection, schedule: Q01DX001 (ip), vehicle: saline + alcohol).

As for `CC(CO)(CO)N=Cc1cc(I)cc(I)c1O`, the T/C by setting is: under setting [1], 93 % of control; under setting [2], 98 % of control; under setting [3], 95 % of control.

`Cc1ccc(Cl)c(C2c3ccccc3Cc3ccc4ccccc4c32)c1` (stereo unspecified): the T/C is, setting by setting: under setting [4], 101 % of control; under setting [1], 101 % of control; under setting [2], 95 % of control; under setting [3], 98 % of control.

As for `O=C1C2C(c3cc4ccccc4n31)N2c1ccccc1` (stereo unspecified), the T/C is, setting by setting: (dose: 0.75 mg/kg/injection, schedule: Q01DX001 (ip), vehicle: water) 103 % of control; (dose: 1.5 mg/kg/injection, schedule: Q01DX001 (ip), vehicle: water) 103 % of control; (dose: 3.0 mg/kg/injection, schedule: Q01DX001 (ip), vehicle: water) 100 % of control; (dose: 6.0 mg/kg/injection, schedule: Q01DX001 (ip), vehicle: water) 106 % of control; (dose: 12.0 mg/kg/injection, schedule: Q01DX001 (ip), vehicle: water) 91 % of control; (dose: 24.0 mg/kg/injection, schedule: Q01DX001 (ip), vehicle: water) 106 % of control.

Consider `Clc1ccc2ccc(Cl)cc2c1`, for which the T/C under setting [1] is 103 % of control, the T/C under setting [2] was 95 % of control and the T/C under setting [3] was 94 % of control.

Regarding `NC(=O)SCC(=O)Nc1ccc2ncccc2c1`, the T/C by setting is: under setting [4], 97 % of control; (dose: 88.0 mg/kg/injection, schedule: Q01DX001 (ip), vehicle: carboxymethylcellulose (CMC)) 95 % of control and 112 % of control; under setting [1], 94 % of control; (dose: 100.0 mg/kg/injection, schedule: Q01DX009 (ip), vehicle: saline sonified) 98 % of control; under setting [5], 93 % of control; (dose: 134.0 mg/kg/injection, schedule: Q01DX001 (ip), vehicle: carboxymethylcellulose (CMC)) 95 % of control and 105 % of control. Also, the T/C is, setting by setting: (dose: 200.0 mg/kg/injection, schedule: Q01DX009 (ip), vehicle: saline sonified) 90 % of control; (dose: 200.0 mg/kg/injection, schedule: Q04DX003 (ip), vehicle: saline) 109 % of control; (dose: 300.0 mg/kg/injection, schedule: Q01DX001 (ip), vehicle: carboxymethylcellulose (CMC)) 100 % of control and 87 % of control; under setting [3], 100 % of control; (dose: 400.0 mg/kg/injection, schedule: Q01DX009 (ip), vehicle: saline sonified) 101 % of control; (dose: 400.0 mg/kg/injection, schedule: Q04DX003 (ip), vehicle: saline) 96 % of control.

On to `CN(C)c1c(F)c(F)c(N=Nc2ccccc2)c(F)c1F`, for which the T/C is, setting by setting: under setting [1], 98 % of control; under setting [2], 114 % of control; under setting [3], 98 % of control.

In the case of `CCCC(=O)NC1=C(N2CC2)C(=O)C(NC(=O)CCC)=C(N2CC2)C1=O`, the T/C runs as follows: (dose: 0.13 mg/kg/injection, schedule: Q01DX010 (oral), vehicle: saline) 104 % of control; (dose: 0.25 mg/kg/injection, schedule: Q01DX010 (oral), vehicle: saline) 110 % of control; (dose: 0.5 mg/kg/injection, schedule: Q01DX010 (oral), vehicle: saline) 116 % of control; (dose: 1.0 mg/kg/injection, schedule: Q01DX010 (oral), vehicle: saline) 116 % of control; (dose: 1.0 mg/kg/injection, schedule: Q01DX Z (ip), vehicle: saline) 124 % of control; (dose: 2.0 mg/kg/injection, schedule: Q01DX Z (ip), vehicle: saline) 166 % of control and 193 % of control. Further, the T/C by setting is: (dose: 4.0 mg/kg/injection, schedule: Q01DX010 (oral), vehicle: saline) 154 % of control; (dose: 8.0 mg/kg/injection, schedule: Q01DX Z (ip), vehicle: saline) 100 % of control.

Regarding `CC(=O)Oc1ccc2c3c(ccc2c1)CCCC3`, the T/C (dose: 50.0 mg/kg/injection, schedule: Q01DX009 (ip), vehicle: Klucel (hydroxypropylcellulose) (HPC)) was 90 % of control and the T/C (dose: 200.0 mg/kg/injection, schedule: Q01DX009 (ip), vehicle: Klucel (hydroxypropylcellulose) (HPC)) is 90 % of control.

On to `CNCC(C)CNC`, for which the T/C is, setting by setting: (dose: 25.0 mg/kg/injection, schedule: Q04DX003 (ip), vehicle: saline) 94 % of control; (dose: 50.0 mg/kg/injection, schedule: Q01DX009 (ip), vehicle: saline) 103 % of control; (dose: 50.0 mg/kg/injection, schedule: Q04DX003 (ip), vehicle: saline) 93 % of control; (dose: 100.0 mg/kg/injection, schedule: Q01DX009 (ip), vehicle: saline) 103 % of control; under setting [5], 95 % of control and 97 % of control.

For the compound `Cn1c[n+](C)ccc1=O`, the T/C by setting is: (dose: 100.0 mg/kg/injection, schedule: Q01DX009 (ip), vehicle: water) 87 % of control; (dose: 100.0 mg/kg/injection, schedule: Q04DX003 (ip), vehicle: water) 111 % of control; (dose: 200.0 mg/kg/injection, schedule: Q01DX009 (ip), vehicle: water) 104 % of control; (dose: 200.0 mg/kg/injection, schedule: Q04DX003 (ip), vehicle: water) 106 % of control; (dose: 400.0 mg/kg/injection, schedule: Q04DX003 (ip), vehicle: water) 111 % of control.

Values taken from PubChem BioAssay AID248 (DTP/NCI, 2004).
